Patent US4256736A, “Psychopharmacological peptides” (Akzona Incorporated, priority 1978, dated 1981)
Entries after “also recorded” stand apart in the source; their conditions may differ.

How the values were obtained:
rats [1] = assay: Pole-jumping avoidance behavior (pole climbing test), extinction of the flight response; type: in vivo, rat; conditions: mean ± S.E.
Excerpt: Rats were trained to jump onto a pole within 5 sec. following presentation of the conditioned stimulus (CS) which was a light on top of the cage. […] 10 trials a day were given in one session with an average intertrial interval of 60 sec. Intervals between trials were 40, 60 and 80 sec. which were presented in a random fashion. Rats were trained for 4 days. Extinction was studied the day following acquisition. During this first post-acquisition session failure to respond within 5 sec. to the CS were not followed by the UCS. All rats were given a 10 trial extinction session. Those animals which made 8 or more avoidances were used for further experimentation. These rats received peptide or placebo (saline) in a volume of 0.5 ml per rat s.c. immediately after completion of the first extinction session. Extinction was studied again 2 and 4 h. later.

opiate receptor = conditions: in words, prior art section; cited from earlier work
rats [2] = conditions: in words, prior art section; cited from earlier work
rats [3] = assay: Ambulation of rats; type: in vivo, rat; conditions: in words, higher dosages
[4] = in words; cited from earlier work
[5] = in words; can be antagonised by naloxone; cited from earlier work
melanocytes = conditions: in words; cited from earlier work
[6] = 0.03 μg per rat s.c., 0 h (first extinction session, injection immediately after)
[7] = 0.03 μg per rat s.c., 2 h after injection
[8] = 0.03 μg per rat s.c., 4 h after injection
[9] = 0.1 μg per rat s.c., 0 h (first extinction session, injection immediately after)
[10] = 0.1 μg per rat s.c., 2 h after injection
[11] = 0.1 μg per rat s.c., 4 h after injection
[12] = 0.3 μg per rat s.c., 0 h (first extinction session, injection immediately after)
[13] = 0.3 μg per rat s.c., 2 h after injection
[14] = 0.3 μg per rat s.c., 4 h after injection

In the case of `O=C(CCCN1CCC(O)(c2ccc(Cl)cc2)CC1)c1ccc(F)cc1` [Haloperidol], the “Extinction (10 trials)” value (rats [1]; [6]) is reported as 9.3 ± 0.3, the “Extinction (10 trials)” value (rats [1]; [7]) is reported as 6.5 ± 0.7 and the “Extinction (10 trials)” value (rats [1]; [8]) is reported as 4.0 ± 0.6. For the same compound, the “Extinction (10 trials)” value (rats [1]; [9]) was 9.5 ± 0.4, the “Extinction (10 trials)” value (rats [1]; [10]) was 3.0 ± 0.0 and the “Extinction (10 trials)” value (rats [1]; [11]) was 0.5 ± 0.4.

In the case of D-Ala-Met-enkephalin, the “affinity for the opiate receptor” value (opiate receptor) is listed as “Affinity for the opiate receptor”.

For “H-GGFMTSEKSQTPLVTL-OH [[Des-Tyr^1]γ-endorphin, H-Gly-Gly-Phe-Met-Thr-Ser-Glu-Lys-Ser-Gln-Thr-Pro-Leu-Val-Thr-Leu-OH]”, the “Extinction (10 trials)” value (rats [1]; 0.01 μg per rat s.c., 0 h (first extinction session, injection immediately after)) was 9.0 ± 0.3, the “Extinction (10 trials)” value (rats [1]; 0.01 μg per rat s.c., 2 h after injection) was 6.2 ± 0.4 and the “Extinction (10 trials)” value (rats [1]; 0.01 μg per rat s.c., 4 h after injection) was 4.2 ± 0.7. The “Extinction (10 trials)” value (rats [1]; [9]) was 8.8 ± 0.4, the “Extinction (10 trials)” value (rats [1]; [10]) was 2.8 ± 1.0 and the “Extinction (10 trials)” value (rats [1]; [11]) was 1.2 ± 0.5. For the same compound, the “Extinction (10 trials)” value (rats [1]; [12]) was 9.3 ± 0.5, the “Extinction (10 trials)” value (rats [1]; [13]) was 3.0 ± 0.7 and the “Extinction (10 trials)” value (rats [1]; [14]) was 1.3 ± 0.5.

In the case of Leu-enkephalin, the “affinity for the opiate receptor” value (opiate receptor) is listed as “Affinity for the opiate receptor”.

For Met-enkephalin, the “effect on extinction of the (active) flight response in the pole-climbing test” value (“effect on extinction” below) (rats [2]) is given as “inhibit the extinction of the flight response” and the “affinity for the opiate receptor” value (opiate receptor) is given as “a certain affinity for the opiate receptor”.

In the case of α-endorphin, the “Extinction (10 trials)” value (rats [1]; [12]) is reported as 9.0 ± 0.4, the “Extinction (10 trials)” value (rats [1]; [13]) is reported as 8.3 ± 0.3 and the “Extinction (10 trials)” value (rats [1]; [14]) is reported as 7.8 ± 0.3. For the same compound, the reduction in ambulation (rats [3]) was “could not be observed”, the “effect on extinction” value (rats [2]) was “inhibit the extinction of the flight response; also recorded: retarded this extinction of the flight response” and the “affinity for the opiate receptor” value (opiate receptor) was “a certain affinity for the opiate receptor”.

For β-LPH-(61-69), the “effect on extinction” value (rats [2]) is listed as “inhibit the extinction of the flight response” and the “affinity for the opiate receptor” value (opiate receptor) is listed as “a certain affinity for the opiate receptor”.

In the case of β-Lipotropin, the fat-mobilising activity [4] is listed as “shows fat-mobilising activity”.

In the case of “β-endorphin (YGGFMTSEKSQTPLVTLFKNAIIKNAYKKGE; Beta-endorphin; UniProt P01189 237-267, looked up)”, the “effect on extinction” value (rats [2]) is given as “inhibits the extinction of the (active) flight response” and the analgesic activity [5] is given as “possess analgesic activity”.

In the case of β-melanotropin, the “influencing the pigmentation of the skin” value (melanocytes) is listed as “capable of influencing the pigmentation of the skin by stimulating the melanocytes”.

With γ-endorphin the “Extinction (10 trials)” value (rats [1]; [6]) was 8.8 ± 0.3, the “Extinction (10 trials)” value (rats [1]; [7]) was 6.7 ± 0.8 and the “Extinction (10 trials)” value (rats [1]; [8]) was 4.0 ± 0.7. For the same compound, the “Extinction (10 trials)” value (rats [1]; [9]) was 9.3 ± 0.3, the “Extinction (10 trials)” value (rats [1]; [10]) was 5.5 ± 0.6 and the “Extinction (10 trials)” value (rats [1]; [11]) was 2.3 ± 0.4. The “Extinction (10 trials)” value (rats [1]; [12]) was 9.0 ± 0.4, the “Extinction (10 trials)” value (rats [1]; [13]) was 4.6 ± 0.3 and the “Extinction (10 trials)” value (rats [1]; [14]) was 0.8 ± 0.4. The reduction in ambulation (rats [3]) was “could not be observed” and the “effect on extinction” value (rats [2]) was “accelerate the extinction of the flight response”.

For γ-lipotropin, the fat-mobilising activity [4] is given as “possesses fat-mobilising properties”.
